Values of other authors, collected in PMC10535842, “Novel Thiazole-Based SIRT2 Inhibitors Discovered via Molecular Modelling Studies and Enzymatic Assays” (Pharmaceuticals, 2023).
pIC50: −log10 of the molar value. Several values for one entry are separate records, joined by “and”; a condition that tells them apart may be missing. Equal entries are not always repeated.

Test system: SIRT2
Conditions: substrate RHKK(Ac)-AMC; read-out: SIRT2 IC50 (series B, compounds 27-111); cited from earlier work

SMILES | pIC50
O=c1c2c3c(sc2ncn1Cc1cccc2cccnc12)CC(NCC1CCCCC1)CC3 (centres unmarked) [Compound 88] | 5.61
COc1ccc2ccccc2c1Cn1cnc2sc3c(c2c1=O)CCC(NCCc1cccnc1)C3 (centres unmarked) [Compound 78] | 4.99
O=c1c2c3c(sc2ncn1Cc1cccc(-c2ccccc2)c1)CC(NCC1CCOC1)CC3 (centres unmarked) [Compound 94] | 5.59
Cc1noc(C)c1CNC1CCc2c(sc3ncn(Cc4cccc5ccccc45)c(=O)c23)C1 (centres unmarked) [Compound 35] | 5.73
COc1ccc(CNC2CCc3c(sc4ncn(Cc5cccc6ccccc56)c(=O)c34)C2)cc1 (centres unmarked) [Compound 57] | 5.49
COc1ccc(CNC2CCc3c(sc4ncn(Cc5ccc6ccccc6c5)c(=O)c34)C2)cc1 (centres unmarked) [Compound 58] | 5.42
COc1ccc2ccccc2c1Cn1cnc2sc3c(c2c1=O)CCC(NCC1CCOC1)C3 (centres unmarked) [Compound 93] | 5.22
O=c1c2c3c(sc2ncn1Cc1ccc2ccccc2c1)CC(NCC1CCCO1)CC3 (centres unmarked) [Compound 92] | 4.88
O=c1c2c3c(sc2ncn1Cc1cccc2ccccc12)CC(NCc1ccco1)CC3 (centres unmarked) [Compound 28] | 5.12
COc1ccc(NC2CCc3c(sc4ncn(Cc5cccc6cccnc56)c(=O)c34)C2)cc1 (centres unmarked) [Compound 60] | 5.61
Cc1nn(C)c(C)c1CNC1CCc2c(sc3ncn(Cc4cccc5ccccc45)c(=O)c23)C1 (centres unmarked) [Compound 32] | 5.38
O=c1c2c3c(sc2ncn1Cc1cccc2cccnc12)CC(NCc1cccs1)CC3 (centres unmarked) [Compound 39] | 5.59
COc1ccc2ccccc2c1Cn1cnc2sc3c(c2c1=O)CCC(NC1CCCC1)C3 (centres unmarked) [Compound 97] | 5.93
COc1cccc(CNC2CCc3c(sc4ncn(Cc5c(OC)ccc6ccccc56)c(=O)c34)C2)c1 (centres unmarked) [Compound 54] | 5.72
COc1ccccc1Cn1cnc2sc3c(c2c1=O)CCC(NC1CCc2ccccc21)C3 (centres unmarked) [Compound 106] | 4.79
O=c1c2c3c(sc2ncn1Cc1ccc2ccccc2c1)CC(NCC1CCCCC1)CC3 (centres unmarked) [Compound 87] | 5.26
COc1ccccc1Cn1cnc2sc3c(c2c1=O)CCC(NCC1CCCCC1)C3 (centres unmarked) [Compound 89] | 5.04
O=c1c2c3c(sc2ncn1Cc1cccc2cccnc12)CC(NC1CCc2ccccc21)CC3 (centres unmarked) [Compound 105] | 5.51
COc1ccc2ccccc2c1Cn1cnc2sc3c(c2c1=O)CCC(NC1CCOCC1)C3 (centres unmarked) [Compound 100] | 5.95
O=c1c2c3c(sc2ncn1Cc1cccc2cccnc12)CC(NCc1cccnc1)CC3 (centres unmarked) [Compound 65] | 5.53

SMILES | pIC50
O=c1c2c3c(sc2ncn1Cc1cccc2ccccc12)CC(NCc1ccccn1)CC3 (centres unmarked) [Compound 71] | 5.11
O=c1c2c3c(sc2ncn1Cc1cccc2cccnc12)CC(NCc1ccccn1)CC3 (centres unmarked) [Compound 73] | 5.58
COc1ccc2ccccc2c1Cn1cnc2sc(CCNCc3ccncc3)c(C)c2c1=O [Compound 110] | 5.53
COc1ccccc1Cn1cnc2sc3c(c2c1=O)CCC(NCc1ccccc1)C3 (centres unmarked) [Compound 43] | 4.98
O=c1c2c3c(sc2ncn1Cc1ccc2ccccc2c1)CC(NCc1ccccc1)CC3 (centres unmarked) [Compound 41] | 5.26
O=c1c2c3c(sc2ncn1Cc1cccc(-c2ccccc2)c1)CC(NC1CCCC1)CC3 (centres unmarked) [Compound 99] | 5.82
O=c1c2c3c(sc2ncn1Cc1cccc2ccccc12)CC(NCc1cncnc1)CC3 (centres unmarked) [Compound 84] | 5.19
O=c1c2c3c(sc2ncn1Cc1cccc2cccnc12)CC(NCCC1CCCCC1)CC3 (centres unmarked) [Compound 95] | 5.23
O=c1c2c3c(sc2ncn1Cc1cccc2cccnc12)CC(NC1CCCc2ccccc21)CC3 (centres unmarked) [Compound 107] | 5.26
COc1ccc(Cn2cnc3sc4c(c3c2=O)CCC(NC2CCOCC2)C4)c2ccccc12 (centres unmarked) [Compound 101] | 5.30
O=c1c2c3c(sc2ncn1Cc1cccc2ccccc12)CC(NCc1cccnc1)CC3 (centres unmarked) [Compound 64] | 5.52
Cc1nn(C)c(C)c1CNC1CCc2c(sc3ncn(Cc4ccc5ccccc5c4)c(=O)c23)C1 (centres unmarked) [Compound 33] | 5.13
COc1ccc(CNC2CCc3c(sc4ncn(Cc5c(OC)ccc6ccccc56)c(=O)c34)C2)cc1 (centres unmarked) [Compound 56] | > 6.00 and 6.19
O=c1c2c3c(sc2ncn1Cc1ccc2ccccc2c1)CC(NCc1ccccn1)CC3 (centres unmarked) [Compound 72] | 5.06
COc1ccc2ccccc2c1Cn1cnc2sc3c(c2c1=O)CCC(NCc1cccs1)C3 (centres unmarked) [Compound 38] | 5.22
COc1ccccc1CNC1CCc2c(sc3ncn(Cc4ccc5ccccc5c4)c(=O)c23)C1 (centres unmarked) [Compound 51] | 5.37
O=c1c2c3c(sc2ncn1Cc1cccc2cccnc12)CC(Nc1ccc(F)cc1)CC3 (centres unmarked) [Compound 62] | > 6.00 and 6.01
COc1ccc(Cn2cnc3sc4c(c3c2=O)CCC(NC2CCCC2)C4)c2ccccc12 (centres unmarked) [Compound 98] | 6.14 and > 6.00
O=c1c2c3c(sc2ncn1Cc1cccc(-c2ccccc2)c1)CC(NCCN1CCOCC1)CC3 (centres unmarked) [Compound 103] | 5.50
O=c1c2c3c(sc2ncn1Cc1ccc2ccccc2c1)CC(NCCc1ccncc1)CC3 (centres unmarked) [Compound 83] | 5.02

SMILES | pIC50
O=c1c2c3c(sc2ncn1Cc1cccc(-c2ccccc2)c1)CC(NC1CCOCC1)CC3 (centres unmarked) [Compound 102] | 5.76
O=c1c2c3c(sc2ncn1Cc1cccc2cccnc12)CC(NCc1cccc(F)c1)CC3 (centres unmarked) [Compound 45] | 5.76
O=c1c2c3c(sc2ncn1Cc1cccc2cccnc12)CC(NCc1cccc(Cl)c1)CC3 (centres unmarked) [Compound 46] | 5.55
Cc1ccc(NC2CCc3c(sc4ncn(Cc5cccc6cccnc56)c(=O)c34)C2)cc1 (centres unmarked) [Compound 61] | 5.37
O=c1c2c3c(sc2ncn1Cc1cccc2cccnc12)CC(NCc1ccccc1Cl)CC3 (centres unmarked) [Compound 48] | 5.42
COc1ccc(CNC2CCc3c(sc4ncn(Cc5cccc6cccnc56)c(=O)c34)C2)cc1 (centres unmarked) [Compound 59] | 5.74
COc1ccc2ccccc2c1Cn1cnc2sc3c(c2c1=O)CCC(NCc1ccncc1)C3 (centres unmarked) [Compound 66] | 5.92
COc1ccc(CNC2CCc3c(sc4ncn(Cc5cccc6cccnc56)c(=O)c34)C2)cn1 (centres unmarked) [Compound 77] | 5.58
COc1ccc2ccccc2c1Cn1cnc2sc3c(c2c1=O)CCC(NCC1CCCCC1)C3 (centres unmarked) [Compound 86] | 5.78
COc1ccc2ccccc2c1Cn1cnc2sc3c(c2c1=O)CCC(NCc1ccccc1)C3 (centres unmarked) [Compound 40] | 4.68
COc1ccc(CNC2CCc3c(sc4ncn(Cc5cccc6ccccc56)c(=O)c34)C2)cn1 (centres unmarked) [Compound 75] | 5.12
COc1ccc(CNCCc2sc3ncn(Cc4c(OC)ccc5ccccc45)c(=O)c3c2C)cc1 [Compound 108] | 5.47
COc1ccc2ccccc2c1Cn1cnc2sc(CCNCc3cccnc3)c(C)c2c1=O [Compound 109] | 5.67
O=c1c2c3c(sc2ncn1Cc1ccc2ccccc2c1)CC(NCc1cncnc1)CC3 (centres unmarked) [Compound 85] | 5.28
O=c1c2c3c(sc2ncn1Cc1ccc2ccccc2c1)CC(NCc1ccco1)CC3 (centres unmarked) [Compound 29] | 4.93
Cc1noc(C)c1CNC1CCc2c(sc3ncn(Cc4cccc5cccnc45)c(=O)c23)C1 (centres unmarked) [Compound 37] | 5.16
COc1ccc2ccccc2c1Cn1cnc2sc3c(c2c1=O)CCC(NCc1ccccn1)C3 (centres unmarked) [Compound 70] | 5.51
O=c1c2c3c(sc2ncn1Cc1cccc2ccccc12)CC(NCCc1ccncc1)CC3 (centres unmarked) [Compound 82] | 5.24
O=c1c2c3c(sc2ncn1Cc1cccc2ccccc12)CC(NCc1ccncc1)CC3 (centres unmarked) [Compound 67] | 5.45
